According to PMC7377239, “Cardiovascular Effects of Polychlorinated Biphenyls and Their Major Metabolites” (Environmental Health Perspectives, 2020):
Read-outs that look alike come from different tables or passages of the source.

Tested on: iCell cardiomyocytes (human iPSC-derived cardiomyocytes)
Assay: Intracellular Ca2+ flux / beating parameters in iCell cardiomyocytes (FLIPR tetra), 90 min or 24 h
Assay type: cell-based
Conditions: for effect on Ca2+ flux: iPSC-CM, 100 μM, because of loss of cell viability; for activity at 0.01 µM / activity at 0.1 µM / activity at 1 µM / activity at 10 µM / activity at 100 µM: Homo sapiens, Cardiomyocyte, 0.00 µM = 100.00; for activity at 0.1 µM: 0.10 µM
Outline: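 PODs were defined as the concentration crossing one SD of the vehicle-control means (0.5% DMSO) on four-parameter logistic fits of Ca2+ trace metrics (peak height, frequency, peak-spacing CV, decay/rise ratio). Traces came from 100 s, 8 Hz FLIPR reads at 37 °C on calcium-dye-loaded iCell cardiomyocytes. Before reading, cells were treated for 90 min or 24 h from 5× chemical plates spanning 0.05–500 µM, in triplicate.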

[1] = 1.5 h, read-out: cm.amp.avg.90min
[2] = 1.5 h, read-out: cm.amp.cv.90min
[3] = 1.5 h, read-out: cm.decay.rise.90min
[4] = 1.5 h, read-out: cm.spacing.cv.90min
[5] = 24 h, read-out: cm.amp.avg.24hrs
[6] = 24 h, read-out: cm.amp.cv.24hrs
[7] = 24 h, read-out: cm.decay.rise.24hrs
[8] = 24 h, read-out: cm.spacing.cv.24hrs

Oc1cc(Cl)cc(-c2cccc(Cl)c2)c1 [5-OH-PCB 11]
effect on Ca2+ flux: complete block of Ca^2+ flux

Oc1cc(Cl)c(-c2cc(Cl)ccc2Cl)cc1Cl [4-OH-PCB 52]
effect on Ca2+ flux: complete block of Ca^2+ flux

Clc1cccc(-c2cccc(Cl)c2)c1 [PCB11]
activity at 0.01 µM [1]: 99.2% | activity at 0.01 µM [2]: 103% | activity at 0.01 µM (1.5 h, read-out: cm.bpm.90min): 103% | activity at 0.01 µM [3]: 101% | activity at 0.01 µM [4]: 93.4% | activity at 0.1 µM [1]: 102% | activity at 0.1 µM [2]: 91.4% | activity at 0.1 µM (1.5 h, read-out: cm.bpm.90min): 103% | activity at 0.1 µM [3]: 98.2% | activity at 0.1 µM [4]: 89.8% | activity at 1 µM [1]: 105% | activity at 1 µM [2]: 97.9% | activity at 1 µM (1.5 h, read-out: cm.bpm.90min): 95.3% | activity at 1 µM [3]: 99.6% | activity at 1 µM [4]: 107% | activity at 10 µM [1]: 94.8% | activity at 10 µM [2]: 99.8% | activity at 10 µM (1.5 h, read-out: cm.bpm.90min): 114% | activity at 10 µM [3]: 91.8% | activity at 10 µM [4]: 101% | activity at 100 µM [1]: 22.3% | activity at 100 µM [2]: 139% | activity at 100 µM (1.5 h, read-out: cm.bpm.90min): 0% | activity at 100 µM [3]: 54.6% | activity at 100 µM [4]: 66.2% | activity at 0.01 µM [5]: 137% | activity at 0.01 µM [6]: 77.1% | activity at 0.01 µM (24 h, read-out: cm.bpm.24hrs): 108% | activity at 0.01 µM [7]: 93.4% | activity at 0.01 µM [8]: 127% | activity at 0.1 µM [5]: 134% | activity at 0.1 µM [6]: 69.8% | activity at 0.1 µM (24 h, read-out: cm.bpm.24hrs): 105% | activity at 0.1 µM [7]: 98.1% | activity at 0.1 µM [8]: 98.2% | activity at 1 µM [5]: 130% | activity at 1 µM [6]: 77.5% | activity at 1 µM (24 h, read-out: cm.bpm.24hrs): 93.6% | activity at 1 µM [7]: 108% | activity at 1 µM [8]: 92.8% | activity at 10 µM [5]: 110% | activity at 10 µM [6]: 90.8% | activity at 10 µM (24 h, read-out: cm.bpm.24hrs): 106% | activity at 10 µM [7]: 111% | activity at 10 µM [8]: 98.2% | activity at 100 µM [5]: 0% | activity at 100 µM [6]: 0% | activity at 100 µM (24 h, read-out: cm.bpm.24hrs): 0% | activity at 100 µM [7]: 0% | activity at 100 µM [8]: 0%

COc1ccc(-c2ccc(Cl)cc2)cc1 [4'-OMe-PCB 3, 4′-methoxy-4-chlorobiphenyl]
inotropic effect (cell beating parameters) (iPSC-CMs, concentration-response 0.01-100 μM, 90 min and 24 h): positive inotropic effects

Oc1cccc(-c2ccc(Cl)cc2)c1 [3'-OH PCB3]
activity at 0.01 µM [1]: 95.3% | activity at 0.01 µM [2]: 94.5% | activity at 0.01 µM (1.5 h, read-out: cm.bpm.90min): 97.8% | activity at 0.01 µM [3]: 96.7% | activity at 0.01 µM [4]: 101% | activity at 0.1 µM [1]: 100% | activity at 0.1 µM [2]: 80.2% | activity at 0.1 µM (1.5 h, read-out: cm.bpm.90min): 102% | activity at 0.1 µM [3]: 97.5% | activity at 0.1 µM [4]: 106% | activity at 1 µM [1]: 97.7% | activity at 1 µM [2]: 92.4% | activity at 1 µM (1.5 h, read-out: cm.bpm.90min): 105% | activity at 1 µM [3]: 102% | activity at 1 µM [4]: 98.3% | activity at 10 µM [1]: 90.4% | activity at 10 µM [2]: 103% | activity at 10 µM (1.5 h, read-out: cm.bpm.90min): 130% | activity at 10 µM [3]: 97.2% | activity at 10 µM [4]: 123% | activity at 100 µM [1]: 0% | activity at 100 µM [2]: 0% | activity at 100 µM (1.5 h, read-out: cm.bpm.90min): 0% | activity at 100 µM [3]: 0% | activity at 100 µM [4]: 0% | activity at 0.01 µM [5]: 82.3% | activity at 0.01 µM [6]: 114% | activity at 0.01 µM (24 h, read-out: cm.bpm.24hrs): 104% | activity at 0.01 µM [7]: 102% | activity at 0.01 µM [8]: 105% | activity at 0.1 µM [5]: 110% | activity at 0.1 µM [6]: 78.7% | activity at 0.1 µM (24 h, read-out: cm.bpm.24hrs): 97.4% | activity at 0.1 µM [7]: 94.2% | activity at 0.1 µM [8]: 100% | activity at 1 µM [5]: 88.2% | activity at 1 µM [6]: 107% | activity at 1 µM (24 h, read-out: cm.bpm.24hrs): 99.3% | activity at 1 µM [7]: 102% | activity at 1 µM [8]: 97% | activity at 10 µM [5]: 22% | activity at 10 µM [6]: 101% | activity at 10 µM (24 h, read-out: cm.bpm.24hrs): 56.3% | activity at 10 µM [7]: 44.1% | activity at 10 µM [8]: 54.5% | activity at 100 µM [5]: 0% | activity at 100 µM [6]: 0% | activity at 100 µM (24 h, read-out: cm.bpm.24hrs): 0% | activity at 100 µM [7]: 0% | activity at 100 µM [8]: 0%
